Earlier results as cited in patent US20220154183A1, “CHMP2A as a Regulator of Natural Killer Cell-Mediated Activity” (The Regents of the University of California, priority 2019, published 2022).

Tested on: HNSCC
Details: cetuximab as monotherapy

Substance	patients responding
Nivolumab	20%
pembrolizumab	20%
